Values after ≈ are worked out from the molar mass of the structure shown.
Legend:
BV173 = experiment: Antiproliferative activity, [3H]thymidine incorporation; type: cell-based; conditions: four days
Protocol: (§1) Cellular viability was monitored by Trypan blue exclusion.
(§2) ^bproliferation was assayed by [^3H]thymidine incorporation with quadruplicate samples, as described under “Materials and methods”.

DHL-6 = experiment: as above; type: cell-based; conditions: four days
Protocol: as §1, §2

Daudi = experiment: as above; type: cell-based; conditions: four days
Protocol: as §1, §2

HL-60 = experiment: as above; type: cell-based; conditions: Homo sapiens, 96 h, four days, read-out: Antiproliferative Activity (IC50, ng/ml)
Protocol: as §1, §2

K562 = experiment: as above; type: cell-based; conditions: Homo sapiens, 96 h, four days, read-out: Antiproliferative Activity (IC50, ng/ml)
Protocol: as §1, §2

Kasumi-1 = experiment: as above; type: cell-based; conditions: Homo sapiens, 96 h, four days, read-out: Antiproliferative Activity (IC50, ng/ml)
Protocol: as §1, §2

NB4 = experiment: as above; type: cell-based; conditions: four days
Protocol: as §1, §2

[1] = tested on: Peripheral Human Lymphocytes; experiment: as above; type: cell-based; conditions: Lymphocyte, 72 h, three days, concanavalin A (0.4 μg/ml), read-out: Antiproliferative Activity (IC50, ng/ml)
Protocol: as §1, §2

RS4;11 = experiment: as above; type: cell-based; conditions: Homo sapiens, 96 h, four days, read-out: Antiproliferative Activity (IC50, ng/ml)
Protocol: as §1, §2

Reh = experiment: as above; type: cell-based; conditions: Homo sapiens, 96 h, four days, read-out: Antiproliferative Activity (IC50, ng/ml)
Protocol: as §1, §2

SUPB13 = experiment: as above; type: cell-based; conditions: 96 h, four days, read-out: Antiproliferative Activity (IC50, ng/ml)
Protocol: as §1, §2

U937 = experiment: as above; type: cell-based; conditions: four days
Protocol: as §1, §2

c-myc mRNA, HL-60 = experiment: c-myc mRNA levels, real time RT-PCR; type: cell-based, human; conditions: Bruceantin (10 ng/ml)
Protocol: (§3) RNA was extracted from 10^6 cells using TRIZOL® Reagent (Life Technologies). Following isopropanol precipitation, the pellet was washed in 75% aqueous ethanol and the RNA was dissolved in […] of diethyl pyrocarbonate (DEPC)-treated distilled water. Subsequently, the samples were stored at −80° C. RNA quantitation was performed by UV measurement at 260 nm. The cDNA synthesis was performed in a total volume of […], containing 1×TaqManÒ RT buffer, 5.5 mM MgCl2, 2 mM dNTPs mixture, 2.5 mM random hexamers, 4 U RNase inhibitor, 12.5 U MultiScriber RT (Perkin Elmer/Applied Biosystems) and […] of RNA. The reaction was performed for 10 min at 25° C., followed by 48° C. for 30 min and a 5 min incubation step at 95° C. After the reaction, […] of DEPC-treated distilled water was added to each sample and […] was used for each PCR.
(§4) The PCR and subsequent analyses were performed in the GeneAmp 5700 Sequence Detection System (Applied Biosystems). Real-time quantitation was performed using the TaqMan technology of Applied Biosystems (Foster City, Calif., USA). c-Myc primers and probe sequences (5′ to 3′) were as follows: […], […] and […] (Applied Biosystems).
(§5) PCR reactions were performed in triplicate. The PCR reaction mixture contained 300 nM of both primers, 150 nM TaqMan probe, and 1×TaqMan Universal Master Mix (Applied Biosystems). The reactions first were incubated at 50° C. for 2 min, followed by 10 min at 95° C. The PCR itself consisted of 40 cycles with 15 s at 95° C. and 1 min at 60° C. each. The fluorescence signal was measured during the last 30 s of the annealing/extension phase. After the PCR, a fluorescence threshold value was set and threshold cycle (Ct) values were determined, i.e., the fractional cycle at which the fluorescence signal reached this threshold. These values were used for further calculations.
(§6) β-Actin (TaqMan PDAR control, Applied Biosystems) was used as an endogenous reference to correct for any differences in the amount of total RNA used for a reaction and to compensate for different levels of inhibition during reverse transcription of RNA into cDNA. c-Myc and β-actin expression were related to a standard curve derived from a serial dilution of K562 cDNA with dH2O. Also, c-Myc and β-actin quantities were expressed in terms of ng of K562 RNA yielding the same level of expression. Subsequently, normalization was achieved by dividing the expression level of c-Myc by the β-actin expression level. Finally, results were expressed as a percentage, where the level of c-Myc observed in the DMSO-treated samples was considered as 100%.
(§7) Cells were treated with brusatol (25 ng/ml) or bruceantin (10 ng/ml) for 4 or 24 h and then analyzed for c-myc and β-actin mRNA using real time RT-PCR. Results are shown as percentage of c-myc mRNA expression of control (0.1%, v/v, DMSO) values. Results are the mean of triplicate samples (±standard deviation). c-Myc mRNA values were normalized relative to β-actin.

c-myc mRNA, BV173 = experiment: c-myc mRNA levels, real time RT-PCR; type: cell-based; conditions: Bruceantin (10 ng/ml)
Protocol: as §3, §4, §5, §6, §7

c-myc mRNA, Daudi = experiment: c-myc mRNA levels, real time RT-PCR; type: cell-based; conditions: Bruceantin (10 ng/ml)
Protocol: as §3, §4, §5, §6, §7

c-myc mRNA, K562 = experiment: c-myc mRNA levels, real time RT-PCR; type: cell-based; conditions: Bruceantin (10 ng/ml)
Protocol: as §3, §4, §5, §6, §7

c-myc mRNA, Kasumi-1 = experiment: c-myc mRNA levels, real time RT-PCR; type: cell-based; conditions: Bruceantin (10 ng/ml)
Protocol: as §3, §4, §5, §6, §7

c-myc mRNA, NB4 = experiment: c-myc mRNA levels, real time RT-PCR; type: cell-based; conditions: Bruceantin (10 ng/ml)
Protocol: as §3, §4, §5, §6, §7

c-myc mRNA, RS4;11 = experiment: c-myc mRNA levels, real time RT-PCR; type: cell-based; conditions: RS4;11, Bruceantin (10 ng/ml)
Protocol: as §3, §4, §5, §6, §7

c-myc mRNA, Reh = experiment: c-myc mRNA levels, real time RT-PCR; type: cell-based; conditions: Bruceantin (10 ng/ml)
Protocol: as §3, §4, §5, §6, §7

c-myc mRNA, SUPB13 = experiment: c-myc mRNA levels, real time RT-PCR; type: cell-based; conditions: Bruceantin (10 ng/ml)
Protocol: as §3, §4, §5, §6, §7

c-myc mRNA, U937 = experiment: c-myc mRNA levels, real time RT-PCR; type: cell-based; conditions: Bruceantin (10 ng/ml)
Protocol: as §3, §4, §5, §6, §7

COC(=O)[C@@]12OC[C@]34[C@H]([C@@H](O)[C@@H]1O)[C@@]1(C)CC(=O)C(O)=C(C)[C@@H]1C[C@H]3OC(=O)[C@H](OC(=O)/C=C(\C)C(C)C)[C@@H]24 [compound 2, bruceantin]
Antiproliferative Activity (IC50, ng/ml) (BV173): No effect
Antiproliferative Activity (IC50, ng/ml) (DHL-6): No effect
Antiproliferative Activity (IC50, ng/ml) (Daudi): No effect
IC50 (HL-60): 20 ± 0.1 ng/mL (≈ 0.0365 µM)
IC50 (K562): 6 ± 0.1 ng/mL (≈ 0.0109 µM)
IC50 (Kasumi-1): 3.2 ± 0.1 ng/mL (≈ 0.00583 µM)
Antiproliferative Activity (IC50, ng/ml) (NB4): No effect
IC50 [1]: 3 ± 0.3 ng/mL (≈ 0.00547 µM)
IC50 (RS4;11): 5.4 ± 0.9 ng/mL (≈ 0.00984 µM)
IC50 (Reh): 12.5 ± 0.8 ng/mL (≈ 0.0228 µM)
IC50 (SUPB13): 10 ± 0.5 ng/mL (≈ 0.0182 µM)
Antiproliferative Activity (IC50, ng/ml) (U937): No effect
c-myc mRNA expression, percentage of control (c-myc mRNA, HL-60; 4 h): 76 ± 9 %
c-myc mRNA expression, percentage of control (c-myc mRNA, HL-60; 24 h): 16 ± 0 %
c-myc mRNA expression, percentage of control (c-myc mRNA, BV173; 4 h): 125 ± 11 %
c-myc mRNA expression, percentage of control (c-myc mRNA, BV173; 24 h): 67 ± 9 %
c-myc mRNA expression, percentage of control (c-myc mRNA, Daudi; 4 h): 134 ± 17%
c-myc mRNA expression, percentage of control (c-myc mRNA, Daudi; 24 h): 70 ± 5 %
c-myc mRNA expression, percentage of control (c-myc mRNA, K562; 4 h): 55 ± 2 %
c-myc mRNA expression, percentage of control (c-myc mRNA, K562; 24 h): 33 ± 2 %
c-myc mRNA expression, percentage of control (c-myc mRNA, Kasumi-1; 4 h): 20 ± 2 %
c-myc mRNA expression, percentage of control (c-myc mRNA, Kasumi-1; 24 h): 15 ± 2 %
c-myc mRNA expression, percentage of control (c-myc mRNA, NB4; 4 h): 27 ± 4 %
c-myc mRNA expression, percentage of control (c-myc mRNA, NB4; 24 h): 85 ± 5%
c-myc mRNA expression, percentage of control (c-myc mRNA, RS4;11; 4 h): 68 ± 3%
c-myc mRNA expression, percentage of control (c-myc mRNA, RS4;11; 24 h): 31 ± 8 %
c-myc mRNA expression, percentage of control (c-myc mRNA, Reh; 4 h): 68 ± 5 %
c-myc mRNA expression, percentage of control (c-myc mRNA, Reh; 24 h): 42 ± 6 %
c-myc mRNA expression, percentage of control (c-myc mRNA, SUPB13; 4 h): 38 ± 2 %
c-myc mRNA expression, percentage of control (c-myc mRNA, SUPB13; 24 h): 24 ± 2 %
c-myc mRNA expression, percentage of control (c-myc mRNA, U937; 4 h): 86 ± 1%
c-myc mRNA expression, percentage of control (c-myc mRNA, U937; 24 h): 19 ± 2 %

From patent publication US20020193425A1, “Cancer chemopreventative compounds and compositions and methods of treating cancers” (priority 2001, published 2002)
